Reference: PubChem BioAssay AID248 (DTP/NCI, 2004)
Values joined by “and” are separate entries in the source; they are usually repeats but may differ in a detail not shown here. Identical values can stand only once. Inconclusive results and toxic doses are left out. Rule as the data show it: active = T/C of 150% or more; inactive = T/C below 125%.

System: L1210 leukemia ip in BDF1 mice, survival T/C
Assay: NCI In Vivo Anticancer Drug Screen. Data for tumor model L1210 Leukemia (intraperitoneal) in B6D2F1 (BDF1) mice
Settings: endpoint: mean survival time, higher = longer survival
How it was run: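 Value reflects the ratio of survival in compound-treated mice to survival in vehicle-treated controls, with both groups carrying the same transplanted tumor.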

[1] = dose: 100.0 mg/kg/injection, schedule: Q04DX002 (ip), vehicle: Klucel (hydroxypropylcellulose) (HPC)
[2] = dose: 200.0 mg/kg/injection, schedule: Q04DX002 (ip), vehicle: Klucel (hydroxypropylcellulose) (HPC)
[3] = dose: 400.0 mg/kg/injection, schedule: Q04DX002 (ip), vehicle: Klucel (hydroxypropylcellulose) (HPC)
[4] = dose: 50.0 mg/kg/injection, schedule: Q01DX009 (ip), vehicle: Klucel (hydroxypropylcellulose) (HPC)
[5] = dose: 100.0 mg/kg/injection, schedule: Q01DX009 (ip), vehicle: Klucel (hydroxypropylcellulose) (HPC)

Measured: T/C

Cc1c2oc3c(C)ccc(C(=O)NC4C(=O)NC(C(C)C)C(=O)N5CCCC5C(=O)N(C)CC(=O)N(C)C(C(C)C)C(=O)OC4C)c3nc-2c(C(=O)NC2C(=O)NC(C(C)C)C(=O)N3CCCC3C(=O)N(C)CC(=O)N(C)C(C(C)C)C(=O)OC2C)cc1=O (centres undefined)
inactive: dose: 0.1 mg/kg/injection, schedule: Q01DX009 (ip), vehicle: saline + alcohol 101 % of control | dose: 0.2 mg/kg/injection, schedule: Q01DX001 (ip), vehicle: saline + alcohol 102 % of control | dose: 0.2 mg/kg/injection, schedule: Q01DX009 (ip), vehicle: saline + alcohol 107 % of control | dose: 0.25 mg/kg/injection, schedule: Q01DX009 (ip), vehicle: saline + alcohol 101 % of control | dose: 0.4 mg/kg/injection, schedule: Q01DX001 (ip), vehicle: saline + alcohol 104 % of control | dose: 0.4 mg/kg/injection, schedule: Q01DX009 (ip), vehicle: saline + alcohol 112 % of control | dose: 0.5 mg/kg/injection, schedule: Q01DX009 (ip), vehicle: saline + alcohol 97 % of control | dose: 0.6 mg/kg/injection, schedule: Q04DX003 (ip), vehicle: saline + alcohol 101 % of control | dose: 0.8 mg/kg/injection, schedule: Q01DX001 (ip), vehicle: saline + alcohol 104 % of control | dose: 1.0 mg/kg/injection, schedule: Q01DX009 (ip), vehicle: saline + alcohol 93 % of control | dose: 1.2 mg/kg/injection, schedule: Q04DX003 (ip), vehicle: saline + alcohol 109 % of control | dose: 1.25 mg/kg/injection, schedule: Q04DX003 (ip), vehicle: saline + alcohol 96 % of control | dose: 1.6 mg/kg/injection, schedule: Q01DX001 (ip), vehicle: saline + alcohol 106 % of control | dose: 2.0 mg/kg/injection, schedule: Q01DX009 (ip), vehicle: saline + alcohol 106 % of control | dose: 2.4 mg/kg/injection, schedule: Q04DX003 (ip), vehicle: saline + alcohol 119 % of control | dose: 2.5 mg/kg/injection, schedule: Q04DX003 (ip), vehicle: saline + alcohol 97 % of control | dose: 3.2 mg/kg/injection, schedule: Q01DX001 (ip), vehicle: saline + alcohol 111 % of control | dose: 4.0 mg/kg/injection, schedule: Q01DX009 (ip), vehicle: saline + alcohol 103 % of control | dose: 5.0 mg/kg/injection, schedule: Q04DX003 (ip), vehicle: saline + alcohol 105 % of control | dose: 6.4 mg/kg/injection, schedule: Q01DX001 (ip), vehicle: saline + alcohol 117 % of control | dose: 10.0 mg/kg/injection, schedule: Q04DX003 (ip), vehicle: saline + alcohol 106 % of control | dose: 20.0 mg/kg/injection, schedule: Q04DX003 (ip), vehicle: saline + alcohol 116 % of control | dose: 12.5 micrograms/kg/injection, schedule: Q01DX009 (ip), vehicle: saline + alcohol 101 % of control | dose: 50.0 micrograms/kg/injection, schedule: Q01DX009 (ip), vehicle: saline + alcohol 103 % of control | dose: 75.0 micrograms/kg/injection, schedule: Q04DX003 (ip), vehicle: saline + alcohol 104 % of control | dose: 150.0 micrograms/kg/injection, schedule: Q04DX003 (ip), vehicle: saline + alcohol 102 % of control | dose: 300.0 micrograms/kg/injection, schedule: Q04DX003 (ip), vehicle: saline + alcohol 106 % of control

N=c1ccn(C(=O)C2=Cc3cc(Cl)ccc3OC2)cc1
inactive: dose: 100.0 mg/kg/injection, schedule: Q01DX009 (ip), vehicle: saline with Tween-80 92 % of control | dose: 200.0 mg/kg/injection, schedule: Q01DX009 (ip), vehicle: saline with Tween-80 102 % of control

NS(=O)(=O)c1ccc(NC(=O)Nc2cccc(CNC(=O)Cc3ccc(Cl)cc3C(=O)O)c2)cc1
inactive: dose: 50.0 mg/kg/injection, schedule: Q01DX001 (ip), vehicle: Klucel (hydroxypropylcellulose) (HPC) 104 % of control | dose: 100.0 mg/kg/injection, schedule: Q01DX001 (ip), vehicle: Klucel (hydroxypropylcellulose) (HPC) 109 % of control | dose: 200.0 mg/kg/injection, schedule: Q01DX001 (ip), vehicle: Klucel (hydroxypropylcellulose) (HPC) 90 % of control

CCCCCCCCOC(=O)c1ccc2c(c1)Nc1cc3ccccc3cc1N2
inactive: [1] 105 % of control | [2] 101 % of control | [3] 92 % of control

O=C1OCC/C1=C/c1cccc(O)c1
inactive: dose: 3.12 mg/kg/injection, schedule: Q04DX002 (ip), vehicle: Klucel (hydroxypropylcellulose) (HPC) 97 % of control | dose: 6.25 mg/kg/injection, schedule: Q04DX002 (ip), vehicle: Klucel (hydroxypropylcellulose) (HPC) 108 % of control | dose: 12.5 mg/kg/injection, schedule: Q04DX002 (ip), vehicle: Klucel (hydroxypropylcellulose) (HPC) 101 % of control

CCC[CH2][Sn]1([CH2]CCC)[CH]=CCC=[C]1C
inactive: dose: 6.25 mg/kg/injection, schedule: Q01DX009 (ip), vehicle: saline with Tween-80 93 % of control | dose: 12.5 mg/kg/injection, schedule: Q01DX009 (ip), vehicle: saline with Tween-80 93 % of control | dose: 25.0 mg/kg/injection, schedule: Q01DX009 (ip), vehicle: saline with Tween-80 101 % of control and 89 % of control

O=C(Nc1ccc(C(=O)O)cc1)Nc1cccc(F)c1
inactive: [4] 102 % of control | [5] 111 % of control | [1] 95 % of control | [2] 98 % of control

CN(C)C(=O)Sc1cc(Cl)c(Cl)cc1Cl
inactive: dose: 87.0 mg/kg/injection, schedule: Q01DX001 (ip), vehicle: Klucel (hydroxypropylcellulose) (HPC) 92 % of control | dose: 175.0 mg/kg/injection, schedule: Q01DX001 (ip), vehicle: Klucel (hydroxypropylcellulose) (HPC) 92 % of control | dose: 350.0 mg/kg/injection, schedule: Q01DX001 (ip), vehicle: Klucel (hydroxypropylcellulose) (HPC) 94 % of control

OC1=NN(Cc2ccccc2)NO1
inactive: dose: 25.0 mg/kg/injection, schedule: Q01DX009 (ip), vehicle: Klucel (hydroxypropylcellulose) (HPC) 95 % of control | [4] 95 % of control | [5] 92 % of control | [1] 104 % of control | [2] 104 % of control | [3] 93 % of control
